The values below are quoted from earlier work in patent publication US8541461B2 (Astex Therapeutics Limited, priority 2005, dated 2013).

The conditions of data set [1]: clinical studies; cited from earlier work.
In the next data set the test system is OVCAR-3 tumour cells. Particulars: concentrations of 50 and 100 microM; cited from earlier work.
For the next data set, the system named is PKC. Particulars: cited from earlier work.
In another data set the test system is PKG. Particulars: cited from earlier work.
For data set [2] the following is noted: doses 10 times more than were needed for antitumour activity; cited from earlier work.
Data set [3] concerns Acute Promyelocytic Leukemia (APL) patients. Particulars: cited from earlier work.
Data set [4] relates to P-glycoprotein-overexpressing subline of leukemic cell line CCRF-CEM. Particulars: read-out: IC50 against P-glycoprotein-overexpressing subline; cited from earlier work.
The conditions of data set [5]: antitumour agent; cited from earlier work.

Regarding `CCCCCCCCCCCCCCCCCCOP(=O)([O-])OC1CC[N+](C)(C)CC1` [KRX-0401, Perifosine], the half-life in data set [1] is ~100 h. Turning to `O=S(=O)(NCCNCC=C(c1ccccc1)c1ccccc1)c1cccc2cnccc12` [NL-71-101], in the data set with OVCAR-3 tumour cells, the “apoptosis in OVCAR-3 tumour cells, in which PKB is amplified” value is on record as “induced apoptosis”. Also, the IC50 is 104 µM in the data set on PKC and 36 µM with PKG. Consider `CCOC(=O)c1ccc2[nH]c3c(OC)c4[nH]c5ccc(C(=O)OCC)cc5c4cc3c2c1` [SR-13668], for which the “adverse effects in mice” value in data set [2] was “no adverse effects”.

For `CC1=C(/C=C/C(C)=C/C=C/C(C)=C/C(=O)O)C(C)(C)CCC1` [Tretinoin, all-trans retinoic acid], in data set [3], the “remissions in APL patients” value is recorded as 64-100%. Turning to `C/C1=C/C[C@@H](/C(C)=C/c2csc(C)n2)OC(=O)C[C@H](O)C(C)(C)C(=O)[C@H](C)[C@@H](O)[C@@H](C)CCC1` [desoxyepothilone B], the half-maximal inhibitory concentration (IC50) in data set [4] is 0.017 µM. calicheamicin: the “potency relative to adriamycin” value in data set [5] is “over 1,000 times”.

The half-life is how long it takes for the measured level to halve. Usually IC50 stands for the point on the concentration scale where inhibition reaches its midpoint.
